{"source": "patent US20100129431A1", "about": "“IDEBENONE COMPOSITION FOR THE TREATMENT OF NEUROLOGICAL DISORDERS” (AlphaRx Inc., priority 2008, published 2010)", "origin": "cited, not measured here", "key": {"rats": {"tested_on": "rats", "conditions": "cerebral embolization, cerebral ischemia or basal forebrain lesions"}, "[1]": {"tested_on": "microsomal lipid peroxidation", "conditions": "induced by ADP-iron complexes or organic hydroperoxides"}, "[2]": {"tested_on": "cultured cortical neurons", "conditions": "also when applied 30 minutes after the NMDA pulse"}, "[3]": {"conditions": "clinical tests"}, "[4]": {"conditions": "oral"}, "free radical species": {"tested_on": "free radical species", "conditions": "cell cultures"}, "[5]": {"tested_on": "patients with cerebrovascular disease", "conditions": "90 mg daily, nine patients"}, "[6]": {"tested_on": "Friedreich's Ataxia patients"}}}
{"smiles": "COC1=C(OC)C(=O)C(CCCCCCCCCCO)=C(C)C1=O", "note": "[Idebenone, 2,3-dimethoxy-5-methyl-6-(10-hydroxydecyl)-1,4-benzoquinone]", "values": [{"measurement": "learning and memory disturbances", "setting": "rats", "result": "ameliorates learning and memory disturbances"}, {"measurement": "microsomal lipid peroxidation", "setting": "[1]", "result": "inhibit microsomal lipid peroxidation"}, {"measurement": "protection against necrotic degeneration", "setting": "[2]", "result": "protects cultured cortical neurons against necrotic degeneration"}, {"measurement": "psychological deficits (memory retention, disorientation)", "setting": "[3]", "result": "effective in reducing psychological deficits"}, {"measurement": "bioavailability", "setting": "[4]", "result": "relatively, high"}, {"measurement": "free radical scavenging", "setting": "free radical species", "result": "scavenged a variety of free radical species"}, {"measurement": "water solubility", "result": "low"}, {"measurement": "EEG and clinical symptoms", "setting": "[5]", "result": "improvements in EEG and clinical symptoms"}, {"measurement": "left ventricular enlargement", "setting": "[6]; 5 mg/kg daily for 4-9 months, three patients", "result": "reduction of left ventricular enlargement"}, {"measurement": "marker of oxidative DNA damage", "setting": "[6]; oral 5 mg/kg daily for 8 weeks", "result": "significantly decreased"}]}
